Experiments:
CYPIR Rice Flatsedge [1] = experiment: Postemergence weed control, flooded paddy (Table IV); type: in vivo, Cyperus iria; design: scale not given here
Procedure, shortened: (§1)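 Weeds 3 to 5 cm tall and rice seedlings at the 1.5 to 2.5 leaf stage were flooded, water held 1.5 to 3 cm above soil. Compounds in 50/50 v/v aqueous/acetone went into the flood water at about 0.0313 to 0.500 kg/ha. Injury was rated visually three to four weeks later.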

[2] = test system: Barnyardgrass, Echinochloa crus-galli; experiment: Postemergence herbicidal evaluation, ECHCG; type: in vivo, (L.) Beau
Procedure, shortened: (§2)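 Foliar spray, 40 psi, ~0.0157–0.500 kg a.i./ha, vehicle acetone/water 1:1 with 0.5% TWEEN 20, on seedlings grown ~2 weeks. Readout: 0–9 visual injury score relative to control at 4–5 weeks.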

ORYSAT Rice, Tebonnet [3] = experiment: Rice tolerance, flooded paddy (Table IV); type: in vivo, Oryza sativa; design: scale not given here; conditions: crop tolerance
Procedure, shortened: as §1

[4] = test system: Wheat, Winter, cv Riband, Triticum aestivum; experiment: Postemergence herbicidal evaluation, TRZAWR; type: in vivo
Procedure, shortened: as §2

Galium, Galium aparine = experiment: Postemergence herbicidal evaluation, GALAP; type: in vivo
Procedure, shortened: as §2

CYPIR Rice Flatsedge [5] = experiment: Preemergence weed control, flooded paddy (Table III); type: in vivo, Cyperus iria; design: scale not given here
Procedure, shortened: (§3)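 Seeds or propagules sown in silt loam under 1.5 to 3 cm standing flood water; compound in 50/50 aqueous/acetone pipetted into the water at about 0.0313 to 0.500 kg/ha active ingredient. Greenhouse-held; herbicidal effect rated on a scale 3-4 weeks after treatment.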

MOOVA Monochoria = experiment: Postemergence weed control, flooded paddy (Table IV); type: in vivo, Monochoria vaginalis; design: scale not given here
Procedure, shortened: as §1

CYPSE Flatsedge [6] = experiment: as above; type: in vivo, Cyperus serotinus; design: scale not given here
Procedure, shortened: as §1

[7] = test system: SAGPY Arrowhead (Pygmaea); experiment: as above; type: in vivo, Sagittaria pygmaea; design: scale not given here
Procedure, shortened: as §1

[8] = test system: ECHORC Watergrass (Calif.); experiment: as above; type: in vivo, Echinochloa oryzoides; design: scale not given here
Procedure, shortened: as §1

ORYSAT Rice, Tebonnet [9] = experiment: Tolerance of transplanted rice to post-transplant application (Table III); type: in vivo, Oryza sativa; design: scale not given here; conditions: crop tolerance
Procedure, shortened: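 Two ten-day-old Tebonnet seedlings were transplanted into flooded silt loam, with water kept 1.5–3 cm above the soil. Three days after transplanting, the flooded surface was treated with compound in 50/50 aqueous/acetone at about 0.0313–0.500 kg/ha. Injury was rated in the greenhouse 3–4 weeks after treatment.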

[10] = test system: Rice, Tebonnet, Oryza sativa; experiment: Postemergence herbicidal evaluation, ORYSAT; type: in vivo, (L.) Tebonnet
Procedure, shortened: as §2

[11] = test system: Wheat, Winter, cv Riband, Triticum aestivum; experiment: Preemergence herbicidal evaluation, TRZAWR; type: in vivo; conditions: 0.2500 kg/ha
Procedure, shortened: (§4)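 Values are 0–9 visual ratings of stand, vigor, malformation, size, chlorosis and overall appearance relative to a control, scored 4 to 5 weeks after treatment. Test compound in aqueous acetone was sprayed onto soil right after seeding, at rates equivalent to about 0.0156–0.500 kg per hectare.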

[12] = test system: Ragweed, Common, Ambrosia artemisifolia; experiment: Preemergence herbicidal evaluation, AMBEL; type: in vivo, L.; conditions: 0.2500 kg/ha
Procedure, shortened: as §4

CYPSE Flatsedge [13] = experiment: Preemergence weed control, flooded paddy (Table III); type: in vivo, Cyperus serotinus; design: scale not given here
Procedure, shortened: as §3

CCc1ccc(-c2nsc3ccc(-n4c(=O)cc(C(F)(F)F)n(C)c4=O)cc23)cc1 [Compound 5, 3-[3-(p-Ethylphenyl)-1,2-benzisothiazol-5-yl]-1-methyl-6-(trifluoromethyl)-2,4 (1H,3H)-pyrimidinedione]
herbicidal effect rating (CYPIR Rice Flatsedge [1]; 0.1250 kg/ha): 9.0 | herbicidal effect rating (CYPIR Rice Flatsedge [1]; 0.2500 kg/ha): 9.0 | herbicidal effect rating (CYPIR Rice Flatsedge [1]; 0.5000 kg/ha): 9.0 | herbicide rating (0-9) ([2]; 0.2500 kg/ha): 7.0 | herbicidal effect rating (ORYSAT Rice, Tebonnet [3]; 0.1250 kg/ha): 4.0 | herbicidal effect rating (ORYSAT Rice, Tebonnet [3]; 0.2500 kg/ha): 6.0 | herbicidal effect rating (ORYSAT Rice, Tebonnet [3]; 0.5000 kg/ha): 8.0 | herbicide rating (0-9) ([4]; 0.2500 kg/ha): 2.0 | herbicide rating (0-9) (Galium, Galium aparine; 0.2500 kg/ha): 9.0 | herbicidal effect rating (CYPIR Rice Flatsedge [5]; 0.0313 kg/ha): 9.0 | herbicidal effect rating (CYPIR Rice Flatsedge [5]; 0.0625 kg/ha): 9.0 | herbicidal effect rating (CYPIR Rice Flatsedge [5]; 0.1250 kg/ha): 9.0 | herbicidal effect rating (CYPIR Rice Flatsedge [5]; 0.2500 kg/ha): 9.0 | herbicidal effect rating (CYPIR Rice Flatsedge [5]; 0.5000 kg/ha): 9.0 | herbicidal effect rating (MOOVA Monochoria; 0.1250 kg/ha): 9.0 | herbicidal effect rating (MOOVA Monochoria; 0.2500 kg/ha): 9.0 | herbicidal effect rating (MOOVA Monochoria; 0.5000 kg/ha): 9.0 | herbicidal effect rating (CYPSE Flatsedge [6]; 0.1250 kg/ha): 0.0 | herbicidal effect rating (CYPSE Flatsedge [6]; 0.2500 kg/ha): 0.0 | herbicidal effect rating (CYPSE Flatsedge [6]; 0.5000 kg/ha): 0.0 | herbicidal effect rating ([7]; 0.1250 kg/ha): 4.0 | herbicidal effect rating ([7]; 0.2500 kg/ha): 6.0 | herbicidal effect rating ([7]; 0.5000 kg/ha): 8.0 | herbicidal effect rating ([8]; 0.1250 kg/ha): 6.0 | herbicidal effect rating ([8]; 0.2500 kg/ha): 9.0 | herbicidal effect rating ([8]; 0.5000 kg/ha): 9.0 | herbicidal effect rating (ORYSAT Rice, Tebonnet [9]; 0.0313 kg/ha): 2.0 | herbicidal effect rating (ORYSAT Rice, Tebonnet [9]; 0.0625 kg/ha): 3.0 | herbicidal effect rating (ORYSAT Rice, Tebonnet [9]; 0.1250 kg/ha): 4.0 | herbicidal effect rating (ORYSAT Rice, Tebonnet [9]; 0.2500 kg/ha): 5.0 | herbicidal effect rating (ORYSAT Rice, Tebonnet [9]; 0.5000 kg/ha): 7.0 | herbicide rating (0-9) ([10]; 0.2500 kg/ha): 3.0 | herbicide rating (0-9) [11]: 4.0 | herbicide rating (0-9) [12]: 9.0 | herbicidal effect rating (CYPSE Flatsedge [13]; 0.0313 kg/ha): 0.0 | herbicidal effect rating (CYPSE Flatsedge [13]; 0.0625 kg/ha): 2.0 | herbicidal effect rating (CYPSE Flatsedge [13]; 0.1250 kg/ha): 6.0 | herbicidal effect rating (CYPSE Flatsedge [13]; 0.2500 kg/ha): 8.0 | herbicidal effect rating (CYPSE Flatsedge [13]; 0.5000 kg/ha): 7.0

COc1ccc(C)cc1-c1nsc2ccc(-n3c(=O)cc(C(F)(F)F)n(C)c3=O)cc12 [Compound 1, 3-[3-(6-Methoxy-m-tolyl)-1,2-benzisothiazol-5-yl]-1-methyl-6-(trifluoromethyl)-2,4(1H,3H)-pyrimidinedione]
herbicidal effect rating (CYPIR Rice Flatsedge [1]; 0.1250 kg/ha): 9.0 | herbicidal effect rating (CYPIR Rice Flatsedge [1]; 0.2500 kg/ha): 9.0 | herbicidal effect rating (CYPIR Rice Flatsedge [1]; 0.5000 kg/ha): 9.0 | herbicide rating (0-9) ([2]; 0.0630 kg/ha): 7.0 | herbicide rating (0-9) ([2]; 0.2500 kg/ha): 9.0 | herbicidal effect rating (ORYSAT Rice, Tebonnet [3]; 0.1250 kg/ha): 4.0 | herbicidal effect rating (ORYSAT Rice, Tebonnet [3]; 0.2500 kg/ha): 6.0 | herbicidal effect rating (ORYSAT Rice, Tebonnet [3]; 0.5000 kg/ha): 7.0 | herbicide rating (0-9) ([4]; 0.0630 kg/ha): 5.3 | herbicide rating (0-9) ([4]; 0.2500 kg/ha): 5.5 | herbicide rating (0-9) (Galium, Galium aparine; 0.0630 kg/ha): 9.0 | herbicide rating (0-9) (Galium, Galium aparine; 0.2500 kg/ha): 9.0 | herbicidal effect rating (CYPIR Rice Flatsedge [5]; 0.0313 kg/ha): 9.0 | herbicidal effect rating (CYPIR Rice Flatsedge [5]; 0.0625 kg/ha): 9.0 | herbicidal effect rating (CYPIR Rice Flatsedge [5]; 0.1250 kg/ha): 9.0 | herbicidal effect rating (CYPIR Rice Flatsedge [5]; 0.2500 kg/ha): 9.0 | herbicidal effect rating (CYPIR Rice Flatsedge [5]; 0.5000 kg/ha): 9.0 | herbicidal effect rating (MOOVA Monochoria; 0.1250 kg/ha): 4.5 | herbicidal effect rating (MOOVA Monochoria; 0.2500 kg/ha): 5.5 | herbicidal effect rating (MOOVA Monochoria; 0.5000 kg/ha): 6.5 | herbicidal effect rating (CYPSE Flatsedge [6]; 0.1250 kg/ha): 3.0 | herbicidal effect rating (CYPSE Flatsedge [6]; 0.2500 kg/ha): 5.5 | herbicidal effect rating (CYPSE Flatsedge [6]; 0.5000 kg/ha): 6.5 | herbicidal effect rating ([7]; 0.1250 kg/ha): 0.0 | herbicidal effect rating ([7]; 0.2500 kg/ha): 1.0 | herbicidal effect rating ([7]; 0.5000 kg/ha): 3.0 | herbicidal effect rating ([8]; 0.1250 kg/ha): 6.5 | herbicidal effect rating ([8]; 0.2500 kg/ha): 8.0 | herbicidal effect rating ([8]; 0.5000 kg/ha): 9.0 | herbicidal effect rating (ORYSAT Rice, Tebonnet [9]; 0.0313 kg/ha): 4.7 | herbicidal effect rating (ORYSAT Rice, Tebonnet [9]; 0.0625 kg/ha): 4.7 | herbicidal effect rating (ORYSAT Rice, Tebonnet [9]; 0.1250 kg/ha): 5.3 | herbicidal effect rating (ORYSAT Rice, Tebonnet [9]; 0.2500 kg/ha): 7.7 | herbicidal effect rating (ORYSAT Rice, Tebonnet [9]; 0.5000 kg/ha): 7.0 | herbicide rating (0-9) ([10]; 0.0630 kg/ha): 4.3 | herbicide rating (0-9) ([10]; 0.2500 kg/ha): 5.0 | herbicide rating (0-9) [11]: 6.0 | herbicide rating (0-9) [12]: 9.0 | herbicidal effect rating (CYPSE Flatsedge [13]; 0.0313 kg/ha): 1.3 | herbicidal effect rating (CYPSE Flatsedge [13]; 0.0625 kg/ha): 3.0 | herbicidal effect rating (CYPSE Flatsedge [13]; 0.1250 kg/ha): 6.0 | herbicidal effect rating (CYPSE Flatsedge [13]; 0.2500 kg/ha): 9.0 | herbicidal effect rating (CYPSE Flatsedge [13]; 0.5000 kg/ha): 8.0

COC(=O)C(C)Oc1ccc(C)cc1-c1nsc2ccc(-n3c(=O)cc(C(F)(F)F)n(C)c3=O)cc12 (stereo not shown) [Compound 3]
herbicidal effect rating (CYPIR Rice Flatsedge [1]; 0.1250 kg/ha): 9.0 | herbicidal effect rating (CYPIR Rice Flatsedge [1]; 0.2500 kg/ha): 9.0 | herbicidal effect rating (CYPIR Rice Flatsedge [1]; 0.5000 kg/ha): 9.0 | herbicide rating (0-9) ([2]; 0.0630 kg/ha): 9.0 | herbicide rating (0-9) ([2]; 0.2500 kg/ha): 9.0 | herbicidal effect rating (ORYSAT Rice, Tebonnet [3]; 0.1250 kg/ha): 3.0 | herbicidal effect rating (ORYSAT Rice, Tebonnet [3]; 0.2500 kg/ha): 3.0 | herbicidal effect rating (ORYSAT Rice, Tebonnet [3]; 0.5000 kg/ha): 3.0 | herbicide rating (0-9) ([4]; 0.0630 kg/ha): 8.8 | herbicide rating (0-9) ([4]; 0.2500 kg/ha): 8.0 | herbicide rating (0-9) (Galium, Galium aparine; 0.0630 kg/ha): 9.0 | herbicidal effect rating (CYPIR Rice Flatsedge [5]; 0.0313 kg/ha): 9.0 | herbicidal effect rating (CYPIR Rice Flatsedge [5]; 0.0625 kg/ha): 9.0 | herbicidal effect rating (CYPIR Rice Flatsedge [5]; 0.1250 kg/ha): 9.0 | herbicidal effect rating (CYPIR Rice Flatsedge [5]; 0.2500 kg/ha): 9.0 | herbicidal effect rating (CYPIR Rice Flatsedge [5]; 0.5000 kg/ha): 9.0 | herbicidal effect rating (MOOVA Monochoria; 0.1250 kg/ha): 9.0 | herbicidal effect rating (MOOVA Monochoria; 0.2500 kg/ha): 9.0 | herbicidal effect rating (MOOVA Monochoria; 0.5000 kg/ha): 9.0 | herbicidal effect rating (CYPSE Flatsedge [6]; 0.1250 kg/ha): 0.0 | herbicidal effect rating (CYPSE Flatsedge [6]; 0.2500 kg/ha): 0.0 | herbicidal effect rating (CYPSE Flatsedge [6]; 0.5000 kg/ha): 0.0 | herbicidal effect rating ([7]; 0.1250 kg/ha): 0.0 | herbicidal effect rating ([7]; 0.2500 kg/ha): 0.0 | herbicidal effect rating ([7]; 0.5000 kg/ha): 0.0 | herbicidal effect rating ([8]; 0.1250 kg/ha): 0.0 | herbicidal effect rating ([8]; 0.2500 kg/ha): 2.0 | herbicidal effect rating ([8]; 0.5000 kg/ha): 4.0 | herbicidal effect rating (ORYSAT Rice, Tebonnet [9]; 0.0313 kg/ha): 2.0 | herbicidal effect rating (ORYSAT Rice, Tebonnet [9]; 0.0625 kg/ha): 2.0 | herbicidal effect rating (ORYSAT Rice, Tebonnet [9]; 0.1250 kg/ha): 3.0 | herbicidal effect rating (ORYSAT Rice, Tebonnet [9]; 0.2500 kg/ha): 4.0 | herbicidal effect rating (ORYSAT Rice, Tebonnet [9]; 0.5000 kg/ha): 4.0 | herbicide rating (0-9) ([10]; 0.0630 kg/ha): 7.2 | herbicide rating (0-9) ([10]; 0.2500 kg/ha): 9.0 | herbicide rating (0-9) [11]: 6.3 | herbicide rating (0-9) [12]: 9.0 | herbicidal effect rating (CYPSE Flatsedge [13]; 0.0313 kg/ha): 0.0 | herbicidal effect rating (CYPSE Flatsedge [13]; 0.0625 kg/ha): 0.0 | herbicidal effect rating (CYPSE Flatsedge [13]; 0.1250 kg/ha): 0.0 | herbicidal effect rating (CYPSE Flatsedge [13]; 0.2500 kg/ha): 2.0 | herbicidal effect rating (CYPSE Flatsedge [13]; 0.5000 kg/ha): 4.0
